Tests used:
[1] = Heart rate assay; type: in vivo; details: IV dosing, 3 mg/kg, 1 hour post dosing, vehicle 2% cyclodextrin, conscious mice, FIG. 11
Procedure: Mice were dosed with compound VIII, FTY720 (intravenous, 3 mg/kg) or vehicle (2% hydroxypropyl beta-cyclodextrin) and heart rate measured at 1 hour post dosing. Heart rate was captured in unrestrained, conscious animals using the ECGenie™ system. The results are illustrated in FIG. 11.

[2] = molecular target: T1, human S1P1 receptor (Homo sapiens, UniProt P21453); assay: GTPγS-35 binding assay (broken cell), S1P1; type: biochemical; details: FIG. 7, compared with S1P
T1 construct: expressed in transfected cells; host or cells: HEK293T cells (crude microsomes)
T1 sequence (P21453 whole entry): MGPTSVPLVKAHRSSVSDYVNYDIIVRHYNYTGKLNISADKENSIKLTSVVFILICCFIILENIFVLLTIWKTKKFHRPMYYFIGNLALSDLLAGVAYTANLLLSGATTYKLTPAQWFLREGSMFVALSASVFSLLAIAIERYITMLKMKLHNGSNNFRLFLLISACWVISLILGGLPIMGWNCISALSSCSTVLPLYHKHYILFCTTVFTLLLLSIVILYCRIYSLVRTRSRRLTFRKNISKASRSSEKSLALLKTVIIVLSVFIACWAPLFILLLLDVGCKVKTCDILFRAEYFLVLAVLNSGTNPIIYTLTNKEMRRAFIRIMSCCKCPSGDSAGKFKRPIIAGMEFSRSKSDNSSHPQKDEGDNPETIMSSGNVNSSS
T1 sequence (P04899 whole entry partner): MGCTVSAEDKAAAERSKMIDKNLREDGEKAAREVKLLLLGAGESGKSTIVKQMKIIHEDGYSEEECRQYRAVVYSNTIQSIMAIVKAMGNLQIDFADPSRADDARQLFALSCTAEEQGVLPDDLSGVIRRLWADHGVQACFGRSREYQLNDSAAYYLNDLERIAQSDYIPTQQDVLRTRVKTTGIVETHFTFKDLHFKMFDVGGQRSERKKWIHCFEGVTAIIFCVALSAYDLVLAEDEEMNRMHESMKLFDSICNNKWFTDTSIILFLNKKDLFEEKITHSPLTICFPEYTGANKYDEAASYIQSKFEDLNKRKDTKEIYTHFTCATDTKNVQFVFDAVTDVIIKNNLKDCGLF
T1 sequence (P62873 whole entry partner): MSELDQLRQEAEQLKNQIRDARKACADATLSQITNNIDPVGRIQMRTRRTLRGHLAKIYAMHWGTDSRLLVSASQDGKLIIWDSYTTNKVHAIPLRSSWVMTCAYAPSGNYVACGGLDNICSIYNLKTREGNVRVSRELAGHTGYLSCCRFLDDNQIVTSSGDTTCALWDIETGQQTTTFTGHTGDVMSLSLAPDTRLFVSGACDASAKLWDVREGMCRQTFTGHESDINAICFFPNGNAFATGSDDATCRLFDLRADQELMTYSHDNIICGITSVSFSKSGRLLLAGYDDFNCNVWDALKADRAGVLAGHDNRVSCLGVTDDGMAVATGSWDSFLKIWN
T1 sequence (P59768 2-68 partner limits assumed): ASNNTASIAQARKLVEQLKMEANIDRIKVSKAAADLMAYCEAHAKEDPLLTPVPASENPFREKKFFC
Procedure: (§1) This assay illustrates agonist activation of G protein coupled receptors (GPCRs) in isolation. The assay forces expression concomitantly of a recombinant GPCR (e.g., the S1P1-5 receptor) and each of the three subunits (typically, α-2, β-1, or γ-2) of a heterotrimeric G protein in a HEK293T cell by transfecting the cell with four plasmid DNAs encoding the respective proteins. About 60 hours after transfection the cells are harvested, opened, and the nucleus discarded. The crude microsome is prepared from the remainder. Agonist (e.g., S1P) stimulation of the receptor-G protein complex on the microsomes results in the exchange of GTP for GDP on the α-subunit in a dose-dependent manner. The GTP-bound a-subunit is detected using a GTP analog (GTPγS-35), which is a radionuclide (sulfur-35) labeled phosphothioate that is not hydrolyzed to GDP. The microsomes with the adherent G proteins are collected by filtration and the bound GTPγS-35 quantified in a liquid scintillation counter. The assay yields relative potency (EC50 values) and maximum effect (efficacy, Emaxa Antagonist activity is detected as rightward shifts in the agonist dose-response curve in the presence of a fixed amount of antagonist. If the antagonist behaves competitively, the affinity of the receptor/antagonist pair (K1) can be determined. […]

[3] = molecular target: T2, S1P3 receptor (Homo sapiens, UniProt Q99500); assay: GTPγS-35 binding assay (broken cell), S1P3; type: biochemical
T2 construct: expressed in transfected cells; host or cells: HEK293T cells (crude microsomes)
T2 sequence (Q99500 whole entry): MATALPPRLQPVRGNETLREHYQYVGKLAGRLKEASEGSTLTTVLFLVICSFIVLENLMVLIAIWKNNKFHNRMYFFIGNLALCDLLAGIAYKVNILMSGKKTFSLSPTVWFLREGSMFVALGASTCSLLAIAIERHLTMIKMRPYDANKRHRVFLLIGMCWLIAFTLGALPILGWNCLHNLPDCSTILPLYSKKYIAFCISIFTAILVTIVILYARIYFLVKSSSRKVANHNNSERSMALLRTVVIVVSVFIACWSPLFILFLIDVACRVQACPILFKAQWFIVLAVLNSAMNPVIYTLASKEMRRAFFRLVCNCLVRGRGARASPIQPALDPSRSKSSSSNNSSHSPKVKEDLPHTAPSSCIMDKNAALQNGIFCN
T2 sequence (P04899 whole entry partner): as the sequence (P04899 whole entry partner) above
T2 sequence (P62873 whole entry partner): as the sequence (P62873 whole entry partner) above
T2 sequence (P59768 2-68 partner limits assumed): as the sequence (P59768 2-68 partner limits assumed) above
Procedure: as §1

SMILES | effect on the heart rate of mice [1] | potency at S1P1 relative to S1P [2] | agonist activity at the S1P3 receptor ([3]; FIG. 8, XXVI and XXVII tested as mixture of phosphorylated forms of compound VIII) | potency at S1P3 relative to S1P ([3]; compared with S1P)
CCCCCCCCc1ccc2c(c1)CCC(C(N)(CO)CO)C2 (stereo not shown) [VIII, 2-Amino-2-(6-octyl-1,2,3,4-tetrahydro-naphthalen-2-yl)-propane-1,3-diol] | no effect |  |  | 
CCCCCCCCc1ccc2c(c1)CCC(C(N)(COP(=O)(O)O)COP(=O)(O)O)C2 (stereo not shown) [XXVII, Phosphoric acid mono-[2-amino-2-(6-octyl-1,2,3,4-tetrahydro-naphthalen-2-yl)-3-phosphonooxypropyl] ester] |  | more potent | low potency, partial agonists | less potent

Reference: US8173710B2, “Bicyclic sphingosine 1-phosphate analogs” (University of Virginia Patent Foundation, priority 2006, dated 2012)
